Reference: patent US10016382B2, “Method for decreasing skeletal muscle damage and/or oxidative stress in mammals” (LONZA INC., priority 2014, dated 2018)

Key:
Type in all cases: in vivo, dog
[1] = Food offered and food consumption (per day, per kg BW, per kg lean mass), Example 2 part one
Procedure: The performance dogs were weighed at the beginning of the study and at one week intervals until the end of part one. Feed consumption and refusals were determined daily by weighing and recording the amount offered or refused. The quantity of food provided to each dog on a daily basis was adjusted based on the goal of maintaining the dog's minimum body weight throughout the study. The consumption per kg of lean mass was determined by dividing the mean lean mass of each group into its mean daily food consumption value at the initial and then the final body scans.

Labrador Retrievers = experiment: Activity (APM, APM/kg) by Actical monitor and GPS collar, Example 2 part one; settings: for APM / APM/kg: crossover L-carnitine dogs
Excerpt: Both the L-carnitine and control performance dogs were put through a weekly running program consisting of two evenly distributed endurance runs. Groups ranging between 6 and 10 dogs were run together, including both treatments in each group. The endurance runs increased incrementally by 0.5 miles per week (5 miles/session increasing to 10 miles per session over an 11 week period). The dogs were allowed a 1 day rest between runs and a 3 day rest before a scheduled exercise distance increase. The dogs were put through maintenance runs of 5 miles twice in the 12th week and then 2 miles twice in the 13th week. All dogs had at least 4 days of rest prior to the final 15 miles run in the 14th week. The first exercise session during the week consisted only of endurance style running, while the second session included short 100 m sprints at each mile interval in order to incorporate measurable anaerobic exercise into the weekly regimen. The endurance runs were slightly slower to enhance fat oxidation and represent an exercise intensity equivalent to 50%-65% VO2 max. Each performance dog wore the Actical activity monitor and GPS tracking collar during the last 15 mile endurance run. The final run was conducted in a manner analogous to that of Example 1. All activity was accurately and precisely calculated using the GPS tracking monitors. Immediately following the 15 mile endurance run, each dog was placed in a kennel and evaluated for recovery time in body temperature (every 15 minutes for 2 hours) and heart rate (every 2 minutes for up to 20 minutes until basal beats per minute (BPM) was reached). Body temperature and heart rate were measured as described in Example 1.

creatine kinase = experiment: Serum creatine kinase, Example 2 part one; settings: for Creatine Kinase: serum
Procedure: Twenty-four hours after test dogs ran the last 15 mile endurance run, serum samples were taken to evaluate biomarkers for muscle damage and antioxidant status. Blood samples were taken 1) just prior to the beginning of the study; 2) 1 day prior to running the final 15 mile run on the 14th week; 3) 1 hour immediately following the 15 mile run; and 4) 24 hours following the final 15 mile run. After a blood sample was drawn, it was allowed to clot for 30 minutes at 25° C. before being centrifuged for 15 minutes at 2000 g at 4° C. Serum was aliquoted into 0.65 mL microcentrifuge tubes and stored at −80° C. until being assayed at the end of the study for creatine kinase, canine myoglobin, thiobarbituric acid reactive substances (TBARS), and total antioxidant capacity (TAC) using the commercially available kits described in Example 1.

[2] = Ex.2 part one, 250 mg/d, 14 week study
[3] = Ex.2 part one, 250 mg/d, week 1
[4] = Ex.2 part one, 250 mg/d, 19 L-carnitine dogs that were control dogs in Example 1
[5] = data collected in Example 1 (then control dogs)

**Q.** What does the source list for `C[N+](C)(C)C[C@H](O)CC(=O)[O-]` [L-carnitine]?
**A.** Mean Food Intake Over 14 wk Duration/Lean Mass ([1]; Change, F): −2.46 g/d/kg Lean Mass; Mean Food Intake Over 14 wk Duration/Lean Mass ([1]; Change, M): −1.98 g/d/kg Lean Mass; Overall mean amount of food offered per day [1, 2]: 677 g/day; Overall mean food intake per day [1, 2]: 574 g/day; Mean food intake per kg lean mass ([1]; Ex.2 part one, 250 mg/d, Final body composition scan): 24.02 g/d/kg LM; Mean food intake per kg lean mass ([1]; Ex.2 part one, 250 mg/d, Initial body composition scan): 26.24 g/d/kg LM; Change in mean food intake per kg lean mass ([1]; Ex.2 part one, 250 mg/d, final minus initial over 14 wks): −2.22 g/d/kg LM; Amount of food consumed [1, 3]: 618.25 g/day; Food consumption per kg body weight [1, 3]: 20.96 g/d/kg BW; Intake of kcals of ME [1, 3]: 83.83 kcal/d/kg BW; Amount of food consumed ([1]; Ex.2 part one, 250 mg/d, week 4): 629.43 g/day; Mean Food Intake Over 14 wk Duration/Lean Mass ([1]; Final, F): 27.46 g/d/kg Lean Mass; Mean Food Intake Over 14 wk Duration/Lean Mass ([1]; Final, M): 20.58 g/d/kg Lean Mass; Mean Food Intake Over 14 wk Duration/Lean Mass ([1]; Initial, F): 29.92 g/d/kg Lean Mass; Mean Food Intake Over 14 wk Duration/Lean Mass ([1]; Initial, M): 22.56 g/d/kg Lean Mass; Daily Food Intake ([1]; Week 1): 618.25 ± 22.33 g; Daily Food Intake (ME) ([1]; Week 1): 83.83 ± 1.85 kcal ME/d/kg BW; Daily Food Intake per kg BW ([1]; Week 1): 20.96 ± 0.46 g/d/kg BW; Daily Food Intake ([1]; Week 2): 608.79 ± 22.8 g; Daily Food Intake (ME) ([1]; Week 2): 85.21 ± 2.22 kcal ME/d/kg BW; Daily Food Intake per kg BW ([1]; Week 2): 21.3 ± 0.55 g/d/kg BW; Daily Food Intake ([1]; Week 3): 600.54 ± 19.89 g; Daily Food Intake (ME) ([1]; Week 3): 82.87 ± 2.34 kcal ME/d/kg BW; Daily Food Intake per kg BW ([1]; Week 3): 20.72 ± 0.58 g/d/kg BW; Daily Food Intake ([1]; Week 4): 629.43 ± 21.4 g; Daily Food Intake (ME) ([1]; Week 4): 86.54 ± 2.08 kcal ME/d/kg BW; Daily Food Intake per kg BW ([1]; Week 4): 21.64 ± 0.52 g/d/kg BW; Daily Food Intake ([1]; Week 5): 597.07 ± 18.65 g; Daily Food Intake (ME) ([1]; Week 5): 81.86 ± 1.82 kcal ME/d/kg BW; Daily Food Intake per kg BW ([1]; Week 5): 20.47 ± 0.45 g/d/kg BW; Daily Food Intake ([1]; Week 6): 579.11 ± 21.17 g; Daily Food Intake (ME) ([1]; Week 6): 78.87 ± 2.06 kcal ME/d/kg BW; Daily Food Intake per kg BW ([1]; Week 6): 19.72 ± 0.51 g/d/kg BW; Daily Food Intake ([1]; Week 7): 584.5 ± 18.91 g; Daily Food Intake (ME) ([1]; Week 7): 79.61 ± 1.97 kcal ME/d/kg BW; Daily Food Intake per kg BW ([1]; Week 7): 19.91 ± 0.49 g/d/kg BW; Daily Food Intake ([1]; Week 8): 547.14 ± 20.91 g; Daily Food Intake (ME) ([1]; Week 8): 74.21 ± 2.16 kcal ME/d/kg BW; Daily Food Intake per kg BW ([1]; Week 8): 18.55 ± 0.54 g/d/kg BW; Daily Food Intake ([1]; Week 9): 602.79 ± 23.4 g; Daily Food Intake (ME) ([1]; Week 9): 81.55 ± 2.2 kcal ME/d/kg BW; Daily Food Intake per kg BW ([1]; Week 9): 20.39 ± 0.55 g/d/kg BW; Daily Food Intake ([1]; Week 10): 580.04 ± 21.88 g; Daily Food Intake (ME) ([1]; Week 10): 78.76 ± 2.25 kcal ME/d/kg BW; Daily Food Intake per kg BW ([1]; Week 10): 19.69 ± 0.56 g/d/kg BW; Daily Food Intake ([1]; Week 11): 543.89 ± 19.79 g; Daily Food Intake (ME) ([1]; Week 11): 73.79 ± 2.09 kcal ME/d/kg BW; Daily Food Intake per kg BW ([1]; Week 11): 18.45 ± 0.52 g/d/kg BW; Daily Food Intake ([1]; Week 12): 493.68 ± 19.06 g; Daily Food Intake (ME) ([1]; Week 12): 66.64 ± 1.71 kcal ME/d/kg BW; Daily Food Intake per kg BW ([1]; Week 12): 16.66 ± 0.43 g/d/kg BW; Daily Food Intake ([1]; Week 13): 511.82 ± 22.64 g; Daily Food Intake (ME) ([1]; Week 13): 68.71 ± 2.06 kcal ME/d/kg BW; Daily Food Intake per kg BW ([1]; Week 13): 17.18 ± 0.51 g/d/kg BW; Daily Food Intake ([1]; Week 14): 543.5 ± 26.43 g; Daily Food Intake (ME) ([1]; Week 14): 73.21 ± 2.75 kcal ME/d/kg BW; Daily Food Intake per kg BW ([1]; Week 14): 18.3 ± 0.69 g/d/kg BW; Crossover activity gain, APM (Labrador Retrievers; [4]): 27,697; Crossover activity gain, APM/kg (Labrador Retrievers; [4]): 975; APM (Labrador Retrievers; Example 2 part one, 250 mg/d): 63,272; APM/kg (Labrador Retrievers; Example 2 part one, 250 mg/d): 2274; APM (Labrador Retrievers; [5]): 37,621; APM/kg (Labrador Retrievers; [5]): 1363; CK increase from pre-run values (creatine kinase; Ex.2 part one, 250 mg/d, 1 hour post-endurance run): 10.81 units; CK values, serum (creatine kinase; Ex.2 part one, 250 mg/d, 1 hour post-run): 26.39 mU/mL; CK values, serum (creatine kinase; Ex.2 part one, 250 mg/d, 24 hour post-run): 23.06 mU/mL; Creatine Kinase (creatine kinase; FEMALES, Baseline): 26.44 ± 3.08 mU · mL; Creatine Kinase (creatine kinase; FEMALES, Post-Run 1 Hr): 26.8 ± 1.36 mU · mL; Creatine Kinase (creatine kinase; FEMALES, Post-Run 24 Hr): 21.71 ± 0.79 mU · mL; Creatine Kinase (creatine kinase; FEMALES, Pre-Run): 17.14 ± 1.96 mU · mL; Creatine Kinase (creatine kinase; MALES, Baseline): 20.81 ± 2.98 mU/mL; Creatine Kinase (creatine kinase; MALES, Post-Run 1 Hr): 25.98 ± 1.39 mU/mL; Creatine Kinase (creatine kinase; MALES, Post-Run 24 Hr): 24.4 ± 1.53 mU/mL; Creatine Kinase (creatine kinase; MALES, Pre-Run): 14.02 ± 1.98 mU/mL; Creatine Kinase (creatine kinase; Whole Groups, Baseline): 23.63 ± 2.17 mU/mL; Creatine Kinase (creatine kinase; Whole Groups, Post-Run 1 Hr, Post-Run 1 Hr): 26.39 ± 0.96 mU/mL; Creatine Kinase (creatine kinase; Whole Groups, Post-Run 24 Hr, Post-Run 24 Hr): 23.06 ± 0.88 mU/mL; Creatine Kinase (creatine kinase; Whole Groups, Pre-Run): 15.58 ± 1.4 mU/mL
